Measured values from ChEMBL document CHEMBL1201862, “PubChem BioAssay data set” (2004).
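In this assay, cells in 96-well plates receive the compound at five concentrations for 48 hours. Endpoints are linearly interpolated between the surrounding concentrations. At the GI50, growth is halved.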 The source made the active and inactive calls. Cut-off read from the data, not from the text of the source: active = GI50 up to about 1.1 µM and inactive = higher.

Assays:
Test in all cases: NCI-60 cell line screen, 48 h
A498 = tested on: A498
SK-MEL-28 = tested on: SK-MEL-28
SF-268 = tested on: SF-268
RPMI-8226 = tested on: RPMI-8226
RXF 393 = tested on: RXF 393
SF-295 = tested on: SF-295
HT-29 = tested on: HT-29
MOLT-4 = tested on: MOLT-4
LXFL 529 = tested on: LXFL 529
NCI-H522 = tested on: NCI-H522
SK-MEL-5 = tested on: SK-MEL-5
HOP-62 = tested on: HOP-62
Malme-3M = tested on: Malme-3M
HOP-92 = tested on: HOP-92
K562 = tested on: K562
CCRF-CEM = tested on: CCRF-CEM
UACC-257 = tested on: UACC-257
OVCAR-5 = tested on: OVCAR-5
BT-549 = tested on: BT-549
MDA-MB-231 = tested on: MDA-MB-231

Compound: O=C(Nc1cc(C(F)(F)F)ccc1Cl)C(=O)C(C(=O)c1ccc2ccccc2c1)C1OC(=O)c2ccccc21 (stereo not given)
- GI50 (A498): 6550 nM (inactive)
- GI50 (SK-MEL-28): 5130 nM (inactive)
- GI50 (SF-268): 4130 nM (inactive)
- GI50 (RPMI-8226): 4250 nM (inactive)
- GI50 (RXF 393): 1200 nM (inactive)
- GI50 (SF-295): 4810 nM (inactive)
- GI50 (HT-29): 13800 nM (inactive)
- GI50 (MOLT-4): 2090 nM (inactive)
- GI50 (LXFL 529): 5110 nM (inactive)
- GI50 (NCI-H522): 4290 nM (inactive)
- GI50 (SK-MEL-5): 7690 nM (inactive)
- GI50 (HOP-62): 6010 nM (inactive)
- GI50 (Malme-3M): 11600 nM (inactive)
- GI50 (HOP-92): 11800 nM (inactive)
- GI50 (K562): 4660 nM (inactive)
- GI50 (CCRF-CEM): 4110 nM (inactive)
- GI50 (UACC-257): 10000 nM (inactive)
- GI50 (OVCAR-5): 8950 nM (inactive)

Compound: COc1cc2cc(c1Cl)N(C)C(=O)C[C@H](OC(=O)[C@H](C)N(C)C(C)=O)[C@]1(C)O[C@H]1[C@H](C)[C@@H]1C[C@@](O)(NC(=O)O1)[C@H](OC)/C=C/C=C(/C)C2
- GI50 (A498): 16.1 nM (active)
- GI50 (SK-MEL-28): 32.7 nM (active)
- GI50 (SF-268): 17.6 nM (active)
- GI50 (BT-549): 334 nM (active)
- GI50 (RPMI-8226): 13.3 nM (active)
- GI50 (RXF 393): 23.6 nM (active)
- GI50 (SF-295): 17.4 nM (active)
- GI50 (HT-29): 16.4 nM (active)
- GI50 (MOLT-4): 22.9 nM (active)
- GI50 (LXFL 529): 10 nM (active)
- GI50 (NCI-H522): 17.3 nM (active)
- GI50 (SK-MEL-5): 13.5 nM (active)
- GI50 (HOP-62): 19.9 nM (active)
- GI50 (Malme-3M): 35.1 nM (active)
- GI50 (HOP-92): 11.8 nM (active)
- GI50 (K562): 17.6 nM (active)
- GI50 (CCRF-CEM): 15.9 nM (active)
- GI50 (UACC-257): 37.3 nM (active)
- GI50 (OVCAR-5): 6980 nM (inactive)

Compound: CCc1cccc(CC)c1NC(=O)CC1SC(N)=NC1=O (stereo not given)
- GI50 (A498): > 100000 nM (inactive)
- GI50 (SK-MEL-28): > 100000 nM (inactive)
- GI50 (SF-268): > 100000 nM (inactive)
- GI50 (RPMI-8226): > 100000 nM (inactive)
- GI50 (RXF 393): > 100000 nM (inactive)
- GI50 (SF-295): > 100000 nM (inactive)
- GI50 (HT-29): > 100000 nM (inactive)
- GI50 (MOLT-4): > 100000 nM (inactive)
- GI50 (LXFL 529): > 100000 nM (inactive)
- GI50 (NCI-H522): > 100000 nM (inactive)
- GI50 (SK-MEL-5): > 100000 nM (inactive)
- GI50 (HOP-62): > 100000 nM (inactive)
- GI50 (Malme-3M): > 100000 nM (inactive)
- GI50 (HOP-92): > 100000 nM (inactive)
- GI50 (K562): > 100000 nM (inactive)
- GI50 (CCRF-CEM): > 100000 nM (inactive)
- GI50 (UACC-257): > 100000 nM (inactive)
- GI50 (OVCAR-5): > 100000 nM (inactive)

Compound: CCC1(OC(=O)CNC)C(=O)OCc2c1cc1n(c2=O)Cc2cc3ccccc3nc2-1 (stereo not given)
- GI50 (A498): < 17.9 nM (active)
- GI50 (SK-MEL-28): 213 nM (active)
- GI50 (SF-268): < 10 nM (active)
- GI50 (BT-549): 59.4 nM (active)
- GI50 (RPMI-8226): < 13.7 nM (active)
- GI50 (RXF 393): 18.5 nM (active)
- GI50 (SF-295): < 10 nM (active)
- GI50 (HT-29): 33.5 nM (active)
- GI50 (MOLT-4): < 10 nM (active)
- GI50 (LXFL 529): 207 nM (active)
- GI50 (NCI-H522): < 11.6 nM (active)
- GI50 (SK-MEL-5): < 12.5 nM (active)
- GI50 (HOP-62): < 10 nM (active)
- GI50 (Malme-3M): 54.3 nM (active)
- GI50 (HOP-92): 49.1 nM (active)
- GI50 (K562): 30.3 nM (active)
- GI50 (CCRF-CEM): < 10 nM (active)
- GI50 (UACC-257): 39.3 nM (active)
- GI50 (MDA-MB-231): 310 nM (active)
- GI50 (OVCAR-5): 24.7 nM (active)
